Measurements published in patent publication US8900720B2, “Multi-functional wood preservatives based on a borate/fatty acid combination” (Summerdale, Inc, priority 2010, dated 2014).

Test system: mold fungi
Experiment: Moldicide assay on treated southern yellow pine stakes (ASTM D4445-91, ASTM D3273-00)
Type: cell-based
Conditions: dip-treated stakes, relative to the water control
Protocol: All moldicide assays were conducted via ASTM standard D4445-91 (1998) and ASTM D3273-00 (1986).
Six groups of southern yellow pine stakes (12 replicates) were dip-treated (30 seconds) with treatments 3-1 through 3-6, inoculated with mold spores, incubated, and examined after 12 weeks (Table 3).
Six groups of southern yellow pine stakes (12 replicates) were dip-treated (30 seconds) with treatments 4-1 through 4-6, inoculated with mold spores, incubated, and examined after 12 weeks.

SMILES	moldicide activity (in words)
OB(O)O [Boric acid, boric acid]	no moldicide activity
O.O.O.O.O=BOB1OB(OB=O)OB2OB([O-])OB([O-])OB(O1)O2.[Na+].[Na+] [DOT, disodium octaborate tetrahydrate]	no moldicide activity
